Here are results for 4 compounds from PMC5460220, “Dual PI3K and Wnt pathway inhibition is a synergistic combination against triple negative breast cancer” (NPJ Breast Cancer, 2017).

For series [1], the system named is metastatic TNBCs. Also on record: method as in ref 16 = [16]; 16. Dirix, L. Avelumab (MSB0010718C), an anit-PD-L1 antibody, in patients with locally advanced or metastatic breast cancer: a phse Ib JAVELIN solid tumor trial. SABCS Annual. Meeting. Oral. Presentat. To be noted: patients with metastatic TNBCs, phase Ib JAVELIN trial; cited from earlier work.
In series [2] the test system is porcupine (PORCN). Put plainly: RNA-seq of MDA-MB-231 cells before and after buparlisib treatment. The class given is cell-based, human. Particulars: MDA-MB-231, RNA-seq before and after treatment.
Description: RNA-sequencing for the buparlisib treated MDA-MB-231 cell line experiment was performed as follows. To enrich for the non-ribosomal RNA transcriptome, RNA samples were first depleted of ribosomal RNA using the Low Input Ribominus Kit (Life Technologies). ERCC spike-in controls (Pool 1) were introduced for all samples (Life Technologies). RNA libraries were constructed using the Ion Total RNA-Seq Kit for AB Library Builder System (Life Technologies) per manufacturer’s instructions. Libraries were barcoded using the IonXpress RNA-Seq Barcode 1–16 Kit (Life Technologies), and libraries were quantified using the Agilent TapeStation 2200 along with the DNA D1K Kit. Libraries were diluted to a concentration of 11 pM prior to templating and emulsion polymerase chain reaction (PCR) using the Ion Template OT2 200 v2 kit along with Ion OneTouch 2 instrument (Life Technologies). Templates were quantified using the IonSphere Quality Control Kit (Life Technologies). Samples were sequenced on an Ion Proton Next-Generation Sequencer using the Ion Proton PI chip and the Ion PI Sequencing 200 v2 kit (Life Technologies). Samples were sequenced using two RNA-seq libraries/samples per chip to an average of 30–40 million reads per sample. Reads were mapped to the human genome (hg19) using the STAR algorithm.[36] Aligned BAM files were then imported into Partek Genomics Suite. […]
In series [3] the test system is porcupine (PORCN) protein. As to the kind of experiment: western blot for porcupine in TNBC cell lines. The class given is cell-based, human. Here is the method:
(§1) To further confirm the induction of porcupine after buparlisib treatment, but at the protein level, we performed western blotting for porcupine and p-AKT before and after treatment with buparlisib.
(§2) Target modulation was assessed using qPCR for Axin2 (a marker of WNT974), and western blot for porcupine and phospho-Akt Ser 473 (a marker of buparlisib activity). qPCR was performed using Taqman assays (Life Technologies). Protein was isolated after 48 h of treatment in biological triplicates using radioimmunoprecipitation assay buffer and quantified with bicinchoninic acid assay (Thermo Fisher). Protein was run on bis-tris gels (Life Technologies) and transferred to polyvinylidene fluoride membrane. Primary pAKT-Ser 473 antibody (Cell Signaling Technology, Beverly, Massachusetts), β-actin (Cell Signaling Technology), and PORCN (Abcam, Cambridge, England) was incubated overnight with subsequent 1-hour incubation with horseradish peroxidase-conjugate secondary antibody. Staining was performed using a chemiluminescent substrate (ThermoFisher). Imaging was performed using an LAS-4000 Luminescent Image Analyzer (Fujifilm, Tokyo, Japan). Quantification of blots was performed using ImageJ (NIH) and statistical analysis using GraphPad.
In general terms: In western blotting, separated proteins are transferred to a membrane and probed.

Series [4] concerns phospho-AKT. As to the kind of experiment: western blot for phospho-AKT in PD study tumors. The format is in vivo, NSG mice. To be noted: TMD-231 xenograft tumors, 7 days of dosing. As to the method:
(§3) To further assess preliminary efficacy and target modulation, a PD experiment was performed. […] Tumors were allowed to grow for 29 days to an average size of ~350 mm^3. […] After only 7 days of treatment, we observed a ~40% decrease in tumor volume with the combination, while tumors actually grew slightly in the face of single agent therapy, again, giving further observations of synergy (Fig. 4a). On the 7th day, the mice had plasma drawn, and then euthanized and the tumor removed. Measurement of buparlisib and WNT974 concentrations in tumor tissue confirmed that these agents were reaching the tumor (Fig. 4b). To assess molecular target modulation, RNA and protein was isolated from each of the tumors in our PD study and biomarker analysis was performed. […] (Supplementary Fig. 3a). […] Target modulation was assessed using qPCR for Axin2 (a marker of WNT974), and western blot for porcupine and phospho-Akt […] (a marker of buparlisib activity). qPCR was performed using Taqman assays (Life Technologies). Protein was isolated after 48 h of treatment in biological triplicates using radioimmunoprecipitation assay buffer and quantified with bicinchoninic acid assay (Thermo Fisher). Protein was run on bis-tris gels (Life Technologies) and transferred to polyvinylidene fluoride membrane. […] Quantification of blots was performed using ImageJ (NIH) and statistical analysis using GraphPad.

The test system of series [5] is TNBC patient-derived xenograft (PDX). Put plainly: TNBC PDX survival study. Particulars: n = 10 per group, once-a-day for a maximum of 28 days, buparlisib 30 mg/kg, WNT974 3 mg/kg. The format is in vivo, NSG mice.
The test system of series [6] is phosphorylated-AKT (p-AKT Ser 473). As to the kind of experiment: western blot for p-AKT in TNBC cell lines. Particulars: MDA-MB-231, HCC70 and HCC1143; 48 h treatment. The class given is cell-based, human. As to the method:
as §1, §2

Series [7] is described as follows: quantification of drug in resected tumors, HPLC-MS/MS. The class given is in vivo, NSG mice. Particulars: NSG, mouse, tumor, 7 days once daily, average with standard deviation; for concentration at 1 h: 1 h post the last dose; for concentration at 7 h: 7 h post the last dose. As to the method: After 7 days of treatment, we observe a ~40% decrease in tumor volume. b Quantification of drug in tumors resected from mice treated in our PD study. Half of the tumors were resected at 1 h post the last dose, and the other half 7 h post the last dose. Using Highperformance liquid chromatography-mass spectrometry (HPLC-MS/MS), buparlisib and WNT974 were quantified as nanograms of drug per gram of tumor tissue (ng/g). Average values with standard deviation are presented. LOQ limit of quantitation c As TMD-231 cells have a known propensity to metastasize to the lung, we assessed the effect of the combination therapy on the growth of lung metastases.

The conditions of series [8]: known; cited from earlier work.
Series [9] deals with TMD-231 lung metastases. Put plainly: quantification of lung metastases, Ki67 staining. The format is in vivo, NSG mice. To be noted: TMD-231 xenograft, PD study lungs; combination p = 0.0196. An excerpt: The TMD-231 cells used in our PD study have a known propensity to metastasize to the lung.[29] To assess the effect of the combination therapy on the growth of lung metastases, lung tissues from our PD study were stained and analyzed for metastatic burden. […] Lungs were extracted, fixed in 10% formalin, and processed in paraffin. Five-micrometer sections were H&E stained, deparaffinized, blocked, and stained using primary anti-human Ki67 antibody (DAKO, Carpinteria, California). The Aperio whole slide digital imaging system was used for imaging (Leica, Wetzlar, Germany). Using the Aperio ScanScope CS, ×20 images were taken at scan times ranging from 1.5 to 2.25 min. The total nuclear labeling index (Ki67) was generated using the Aperio ImageScope standard positive pixel algorithm. The Image Analysis software was used to calculate the percent of positive pixels (brown staining) in one large cross section from each lung.

For series [10], the system named is AXIN2 RNA. Put plainly: qPCR for AXIN2 RNA in PD study tumors. The format is in vivo, NSG mice. To be noted: TMD-231 xenograft tumors, 7 days of dosing. As to the method:
as §3
(In general: Quantitative PCR measures a nucleic acid by following its amplification.)

Series [11] has as its system tumor growth. Also on record: method as in PMID 24277854. To be noted: recently published data; cited from earlier work.
Series [12] relates to porcupine. Details: method as in PMID 24277854. To be noted: recently published data; cited from earlier work.
The subject of series [13] is advanced TNBC. Also on record: method as in ref 17 = [17]; 17. Nanda, R. A phase Ib study of pembrolizumab (MK-3475) in patients with advanced triple- negative breast cancer. SABCS Annual. Meeting. Oral. Presentation . (2014). To be noted: phase Ib trial; cited from earlier work.
[14] abbreviates: 30 mg/kg, read-out: Buparlisib in tumor tissue.
[15] abbreviates: 3 mg/kg, read-out: WNT974 in tumor tissue.

Where two headings read alike, the source gives them in different places.

For the compound avelumab: an anti-PD-L1 antibody, the overall response rate in series [1] is 8.6%.
In the case of `Nc1cc(C(F)(F)F)c(-c2cc(N3CCOCC3)nc(N3CCOCC3)n2)cn1` [buparlisib], the “PORCN over-expression after PI3K inhibition” value in series [2] is given as ~ 8 fold. Further, the “PORCN protein, quantified western blot” value in [3] (HCC70, 10 x IC50 buparlisib, p-value 0.0084) is reported as “significant increase”; in [3] (HCC1143, IC50 buparlisib, p-value 0.013) it was “significant increases”; in [3] (MD-MB-231, IC50 buparlisib, p-value 0.0072) it was “significant increases”. Also, in series [4], the “inhibition of phospho-AKT in tumors” value was “observed”. Besides, the “mice survived to the end of the study” value in [5] was found to be 40%. In addition, the phospho-AKT after treatment result in series [6] is listed as “potent inhibition”. For the same compound, the concentration at 1 h in series [7] (setting [14]) came out at 3590 ± 898 ng/g. In series [7] (setting [14]), the concentration at 7 h is 2960 ± 683 ng/g. The “toxicity / most common side effect in humans” value in [8] is “depression, anxiety, pneumonitis, and liver toxicity”. In addition, in [9], the “lung metastases compared with the control group” value was “small but non-significant decreases”.
For the compound `Cc1cc(-c2ncc(CC(=O)Nc3ccc(-c4cnccn4)cn3)cc2C)ccn1` [WNT974], the “inhibition of phospho-AKT in tumors” value in series [4] is on record as “not”. In [5], the “mice survived to the end of the study” value worked out at 0%. Also, in series [10], the “AXIN2 RNA levels in tumors” value is “decreased”. In [11], the “inhibition of tumor growth in vivo” value is on record as “significant inhibition”. The “inhibition of its target (porcupine)” value in series [12] was “potent inhibition”. In [7] (setting [15]), the concentration at 1 h is 19.2 ± 1.11 ng/g and the concentration at 7 h was found to be 8.34 ± 0.33 ng/g. In addition, the “toxicity / most common side effect in humans” value in series [8] is on record as “dysgeusia”. Further, the “lung metastases compared with the control group” value in series [9] was “small but non-significant decreases”.
With “pembrolizumab: immune checkpoint therapy tested in a phase Ib trial in advanced TNBC”, in [13], the overall response rate was 18.5%.
